Data set [1] can be described thus: liver microsome metabolity assay (PK Assays). The class given is in vitro ADME, human. The note with it: pH 7.4. The protocol: The following liver microsome metabolity assays validated the PK properties of compounds of Formula (I). 1. Buffer A: 1.0 L 0.1 M potassium phosphate monobasic buffer (including 1.0 mM EDTA); Buffer B: 1.0 L 0.1 M dipotassium phosphate buffer (including 1.0 mM EDTA); Buffer C: 0.1 M potassium phosphate buffer (including 1.0 mM EDTA), pH 7.4, add Buffer A to 700 ml of Buffer B until pH is 7.4. 2. Drug solution: 500 μM solution: a 10 μL (10 mM) DMSO was added to 190 μL ACN; 1.5 μM solution (dissolved in human microsome and the final concentration of microsome is 0.75 mg/mL): 1.5 μL (500 μM) of drug solution and 18.75 μL of human microsome (20 mg/mL) were added to 479.75 uL of Buffer C. 3. NADPH solution (6 mM, dissolved in Buffer C). 4. 30 µL of drug solution (1.5 μM) was added to a 96-well plate, setting locations for different time points; Preincubated for 10 minutes at 37° C. 5. […] of NADPH (6 mM) was added to the location for 45-min time point; and timing started. 6. At 30, 15 and 5 min, […] of NADPH (6 mM) was added to each corresponding locations, respectively. 7. After the reaction was completed mins), 135 μL acetonitrile was added to the locations for all different time points; 15 µL of NADPH (6 mM) was added to the location for 0 min time point. 8. Centrifugated at 3220 g for 10 min. 9. 50 μL of supernatant was collected and mixed with 50 μL, of ultrapure water. Samples were sent to LC/MS for analysis.
In general terms: Microsomes from liver hold many membrane-bound enzymes, among them those of drug oxidation.

Data set [2] has as its system HCV replicon-containing huh-7 cells (replicon 1b). Description: HCV Replicon Assay (luciferase readout). The note with it: Hepatitis C virus; HCV replicon 1b in huh-7 cells, 48 h incubation, 1% DMSO, luciferase signal; read-out: EC50 (EC 50 on replicon 1b). The class given is cell-based. The protocol: Compounds of formuala (I) are tested for the ability to inhibit viral replication of the Hepatitis C viruses by the following in vitro assays.
DMEM (Life Technologies #41965-039) was supplemented with 10% FBS, 2 mM L-glutamine (Life Technologies #25030-024), penicillin (100 units/ml)/streptomycin (100 micrograms/ml) (Life Technologies #15140-114), 1× non-essential amino acids (Life Technologies #11140-035).
Complete media was prepared by mixing FBS, DMEM media with Geneticin (G418). The compete media was preincubated at 37° C. in a CO2 incubator. Then, HCV replicon-containing huh-7 cells (V. Lohmann et. al. Science, 285, (1999)110-113) was taken out from 37° C. incubator. The residual medium was absorbed, and the cells were washed with PBS. After washing fluid was removed, 1 ml 0.25% trypsin/0.02% EDTA solution. The cells were washed by the above trypsin/EDTA solution to make sure that each cell was cleaned. After the trypsin/EDTA solution was absorbed, the mixture was incubated at 37° C. in a CO2 incubator for 3-5 minutes. Morphological changes were observed by inverted microscope, till the cells were detached from the wall of container completely.
3 ml of complete media was added to make the cells to suspend. The cells are counted with hematometer. Appropriate volumes of the complete media was added to adjust the cell density to 100,000/ml. Cells were plated with 100 μl of suspension at 10,000/well of 96 well plate. Plates were placed into 37° C. 5% CO2 incubator for 24 h.
Preparation of Drug Solution:
Drugs were diluted under aseptic conditions.
Stock solutions may be prepared before the assay, which means that the test compounds are dissolved in 100% DMSO to afford a final concentration of 2 mM. Before the 96 well culture was completed, the stock solution was diluted with culter media to 100 fold of the final concentration (100× solution).
96-well plates were taken out from 37° C. CO2 incubator and morphological changes were observed by inverted microscope. In a ventilator, 1 μl of 100× drug solution was added to wells of 96 well plate until the final concentration of DMSO in the mixture is 1%. The plates were incubated at 37° C. in a CO2 environment for 48 h. 30 μl of Stead-G1® Luciferase Assay System (bought from Promega) was added to each well of 96 well plates and each plate is shaken in a plate shaker for 5 minutes to ensure cells cleavaged completely. The fluorescence signal was quantitated in a Perkin-Elmer plate reader (Envision) and integral time was setted to be 2 second. The following data were achieved after recording and analyzing the data.

Like-named read-outs stand apart in the source and are kept apart here.

In data set [1] (human, microsomes), `C=C[C@@H]1C[C@]1(NC(=O)[C@@H]1C[C@@H]2CN1C(=O)[C@H](C(C)(C)C)NC(=O)[C@@H](NC(=O)OC(C)(C)C)COC/C=C/c1cccc3c1CN(C3)C(=O)O2)C(=O)NS(=O)(=O)C1CC1` [Compound IIa-1, tert-butyl N-[(1R,12E,17S,20S,23S)-20-tert-butyl-23-{[(1R,2S)-1-[(cyclopropanesulfonyl)carbamoyl]-2-ethenylcyclopropyl]carbamoyl}-3,18,21-trioxo-2,15-dioxa-4,19,22-triazatetracyclo[20.2.1.1^4,7.0^6,11]hexacosa-6,8,10,12-tetraen-17-yl]carbamate] yielded a half-life at 1 µM of 3.3 h. Besides, the EC50 in data set [2] is below 10 nM. In the same order, the values of `C=C[C@@H]1C[C@]1(NC(=O)[C@@H]1C[C@@H]2CN1C(=O)[C@H](C1CCCCC1)NC(=O)[C@@H](NC(=O)OC(C)(C)C)COC/C=C/c1cccc3c1CN(C3)C(=O)O2)C(=O)NS(=O)(=O)C1CC1` [Compound IIa-16, tert-butyl N-[(1R,12E,17S,20S,23S)-20-cyclohexyl-23-{[(1R,2S)-1-[(cyclopropanesulfonyl)carbamoyl]-2-ethenylcyclopropyl]carbamoyl}-3,18,21-trioxo-2,15-dioxa-4,19,22-triazatetracyclo[20.2.1.1^4,7.0^6,11]hexacosa-6,8,10,12-tetraen-17-yl]carbamate] are 3.22 h and below 10 nM. In the same order, the values of `C=C[C@@H]1C[C@]1(NC(=O)[C@@H]1C[C@@H]2CN1C(=O)[C@H](C1CCCCC1)NC(=O)[C@@H](NC(=O)OC(C)(C)C)COC/C=C/c1cc3c(nccc3cc1OC)O2)C(=O)NS(=O)(=O)C1CC1` [Compound IIb-3, tert-butyl N-[(3R,5S,8S,11S,15E)-8-cyclohexyl-5-{[(1R,2S)-1-[(cyclopropanesulfonyl)carbamoyl]-2-ethenylcyclopropyl]carbamoyl}-18-methoxy-7,10-dioxo-2,13-dioxa-6,9,23-triazatetracyclo[15.6.2.1^3,6.0^20,24]hexacosa-1(23),15,17(25),18,20(24),21-hexaen-11-yl]carbamate] are 3.83 h and below 10 nM. `C=C[C@@H]1C[C@]1(NC(=O)[C@@H]1C[C@@H]2CN1C(=O)[C@H](C1CCCCC1)NC(=O)[C@@H](NC(=O)OC(C)(C)C)COCCCc1cc3c(nccc3cc1OC)O2)C(=O)NS(=O)(=O)C1CC1` [Compound IIb-4, tert-butyl N-[(3R,5S,8S,11S)-8-cyclohexyl-5-{[(1R,2S)-1-[(cyclopropanesulfonyl)carbamoyl]-2-ethenylcyclopropyl]carbamoyl}-18-methoxy-7,10-dioxo-2,13-dioxa-6,9,23-triazatetracyclo[15.6.2.1^3,6.0^20,24]hexacosa-1(23),17(25),18,20(24),21-pentaen-11-yl]carbamate]: the EC50 in data set [2] is below 10 nM.

For `CC[C@@H]1C[C@]1(NC(=O)[C@@H]1C[C@@H]2CN1C(=O)[C@H](C1CCCCC1)NC(=O)[C@@H](NC(=O)OC(C)(C)C)COC/C=C/c1cc3c(nccc3cc1OC)O2)C(=O)NS(=O)(=O)C1CC1` [Compound IIb-5, tert-butyl N-[(3R,5S,8S,11S,15E)-8-cyclohexyl-5-{[(1R,2R)-1-[(cyclopropanesulfonyl)carbamoyl]-2-ethylcyclopropyl]carbamoyl}-18-methoxy-7,10-dioxo-2,13-dioxa-6,9,23-triazatetracyclo[15.6.2.1^3,6.0^20,24]hexacosa-1(23),15,17(25),18,20(24),21-hexaen-11-yl]carbamate], the EC50 in data set [2] lay within 10 to 50 nM. The same measure, in the same setting: the same measure for `C=C[C@@H]1C[C@]1(NC(=O)[C@@H]1C[C@@H]2CN1C(=O)[C@H](C1CCCCC1)NC(=O)[C@@H](NC(=O)OC(C)(C)C)COC/C=C/c1cc3c(nccc3cc1OC)O2)C(=O)O` [Compound IIb-7, tert-butyl N-[(3R,5S,8S,11S,15E)-8-cyclohexyl-5-{[(1R,2S)-1-hydroxycarbonyl-2-ethenylcyclopropyl]carbamoyl}-18-methoxy-7,10-dioxo-2,13-dioxa-6,9,23-triazatetracyclo[15.6.2.13,6.020,24]hexacosa-1(23),15,17(25),18,20(24),21-hexaen-11-yl]carbamate]: 500 to 20000 nM. For `CC[C@@H]1C[C@]1(NC(=O)[C@@H]1C[C@@H]2CN1C(=O)[C@H](C(C)(C)C)NC(=O)OCC(C)(C)CCCCc1cccc3c1CN(C3)C(=O)O2)C(=O)NS(=O)(=O)C1CC1` [MK7009, reference compound], the half-life at 1 µM in data set [1] (human liver microsomes, human microsome 0.75 mg/mL, 1.5 μM drug solution, NADPH, 37° C., time points 0-45 min, LC/MS, read-out: t1/2) was 0.433 h. Moreover, in data set [2], the EC50 is below 10 nM.

Usually EC50 stands for the concentration giving half of the maximal effect.

For the origin of these results see patent publication US9321809B2, “Macrocyclic compounds for suppressing replication of hepatitis C virus” (Ginkgo Pharma Co., Ltd., priority 2012, dated 2016).
